Results: ChEMBL document CHEMBL5053500, “Nitric Oxide Induction in Peritoneal Macrophages by a 1,2,3-Triazole Derivative Improves Its Efficacy upon Leishmania amazonensis In Vitro Infection” (J Med Chem, 2021)
Calls of active or inactive are those of the source. No cut-off for these calls is given here.

How the values were obtained:
[1] = Cytotoxicity against BALB/c mouse peritoneal macrophages assessed as reduction in cell viability incubated for 24 hrs by MTT assay; type: cell-based, Peritoneal macrophage
Leishmania amazonensis [2] = assay: Antileishmanial activity against Leishmania amazonensis (MHOM/BR/76/MA-76) promastigotes assessed as reduction in parasite growth incubated for 24 hrs by MTT assay; type: functional, organism-based; settings: MHOM/BR/76/MA-76, 24 h
[3] = Selectivity index, ratio of CC50 for cytotoxicity against BALB/c mouse peritoneal macrophages to IC50 for antileishmanial activity against Leishmania amazonensis (MHOM/BR/76/MA-76) promastigotes; type: toxicity; settings: read-out: Ratio CC50/IC50
[4] = Cytotoxicity against human CCD-1072Sk cells assessed as reduction in cell viability at <400 uM measured after 24 hrs by MTT assay; type: cell-based
[5] = Cytotoxicity against human CCD-1072Sk cells assessed as reduction in cell viability measured after 24 hrs by MTT assay; type: cell-based
Leishmania amazonensis [6] = assay: (§1) Antileishmanial activity against Leishmania amazonensis (MHOM/BR/76/MA-76) intracellular amastigotes infected in BALB/c mouse peritoneal macrophages assessed as reduction in parasite growth incubated for 24 hrs by Giemsa's azur-eosin-methyle blue staining based light microscopy analysis; type: functional, organism-based; settings: MHOM/BR/76/MA-76, Peritoneal macrophage
[7] = Selectivity index, ratio of CC50 for cytotoxicity against BALB/c mouse peritoneal macrophage to IC50 for antileishmanial activity against Leishmania amazonensis (MHOM/BR/76/MA-76) intracellular amastigotes infected in BALB/c mouse peritoneal macrophages; type: toxicity, cell-based; settings: read-out: Ratio CC50/IC50
Leishmania amazonensis [8] = assay: Antileishmanial activity against Leishmania amazonensis (MHOM/BR/76/MA-76) promastigotes assessed as upward shift in concentration response curves of parasite viability incubated for 24 hrs by MTT assay; type: functional, organism-based
Leishmania amazonensis [9] = assay: Antileishmanial activity against Leishmania amazonensis (MHOM/BR/76/MA-76) intracellular amastigotes infected in BALB/c mouse peritoneal macrophages assessed as upward shift in concentration response curves of parasite viability incubated for 24 hrs by Giemsa's azur-eosin-methyle blue staining based light microscopy analysis; type: functional, organism-based; settings: Peritoneal macrophage
Leishmania amazonensis [10] = assay: as §1, with “decrease” for “reduction”, “number of amastigotes per 100 cells at 10 to 40 uM” for “parasite growth”; type: functional, organism-based; settings: Peritoneal macrophage, dose 10-40 µM
Leishmania amazonensis [11] = assay: as §1, with “decrease” for “reduction”, “number of amastigotes per infected cells at 20 to 40 uM” for “parasite growth”; type: functional, organism-based; settings: Peritoneal macrophage, dose 20-40 µM
Leishmania amazonensis [12] = assay: (§2) Antileishmanial activity against Leishmania amazonensis (MHOM/BR/76/MA-76) intracellular amastigotes infected in BALB/c mouse peritoneal macrophages assessed as low amastigote mean at 5 to 40 uM incubated for 24 hrs by Giemsa's azur-eosin-methyle blue staining based light microscopy analysis; type: functional, organism-based; settings: Peritoneal macrophage, dose 5-40 µM
[13] = Inhibition of iNOS expression in BALB/c mouse peritoneal macrophages stimulated with Leishmania amazonensis assessed as decrease in nitrite levels at 200 nM pretreated for 1 hr followed by parasite stimulation and measured after 48 hrs by Griess reagent based assay; type: functional, Peritoneal macrophage; settings: time 49 hrs
Leishmania amazonensis [14] = assay: Induction of morphological changes in Leishmania amazonensis (MHOM/BR/76/MA-76) promastigotes assessed as formation of membrane profiles near the flagellar pocket at IC50 incubated for 24 hrs by transmission electron microscopy analysis; type: functional, organism-based
Leishmania amazonensis [15] = assay: Induction of morphological changes in Leishmania amazonensis (MHOM/BR/76/MA-76) promastigotes assessed as kinetoplast swelling at IC50 incubated for 24 hrs by transmission electron microscopy analysis; type: functional, organism-based
[16] = Selectivity ratio of IC50 for antileishmanial activity against Leishmania amazonensis (MHOM/BR/76/MA-76) promastigotes to IC50 for antileishmanial activity against Leishmania amazonensis (MHOM/BR/76/MA-76) intracellular amastigotes infected in BALB/c mouse peritoneal macrophages; type: functional
Leishmania amazonensis [17] = assay: Induction of morphological changes in Leishmania amazonensis (MHOM/BR/76/MA-76) promastigotes assessed as lipid inclusions at IC50 incubated for 24 hrs by transmission electron microscopy analysis; type: functional, organism-based
Leishmania amazonensis [18] = assay: Induction of morphological changes in Leishmania amazonensis (MHOM/BR/76/MA-76) promastigotes assessed as formation of small vesicles surrounded by a membrane in cytoplasm at IC50 incubated for 24 hrs by transmission electron microscopy analysis; type: functional, organism-based
Peritoneal macrophage [19] = assay: Induction of NO production in BALB/C mouse peritoneal macrophages assessed as nitrite levels at 50 uM measured after 48 hrs by Griess reagent based assay (Rvb= 3.22 +/- 0.570 uM); type: functional
Peritoneal macrophage [20] = assay: Induction of NO production in BALB/C mouse peritoneal macrophages assessed as nitrite levels at 100 uM measured after 48 hrs by Griess reagent based assay (Rvb= 3.22 +/- 0.570 uM); type: functional
Peritoneal macrophage [21] = assay: Cytotoxicity against BALB/C mouse peritoneal macrophages assessed as reduction in cell viability at 100 uM measured after 24 hrs by MTT assay relative to control; type: cell-based
Peritoneal macrophage [22] = assay: Induction of NO production in BALB/C mouse peritoneal macrophages infected with Leishmania amazonensis assessed as nitrite levels at 50 uM measured after 48 hrs by Griess reagent based assay (Rvb= 4.11 +/- 0.156 uM); type: functional
[23] = Upregulation of iNOS mRNA expression in BALB/c mouse peritoneal macrophages at 50 uM measured after 48 hrs by qRT-PCR analysis relative to control; type: functional, Peritoneal macrophage
[24] = Upregulation of iNOS mRNA expression in BALB/c mouse peritoneal macrophages stimulated with Leishmania amazonensis at 50 uM measured after 48 hrs by qRT-PCR analysis; type: functional, Peritoneal macrophage
Peritoneal macrophage [25] = assay: Upregulation of TNF-alpha mRNA expression in BALB/c mouse peritoneal macrophages stimulated with Leishmania amazonensis at 50 uM measured after 48 hrs by qRT-PCR analysis; type: functional, tissue-based
Peritoneal macrophage [26] = assay: Upregulation of IL-1beta mRNA expression in BALB/c mouse peritoneal macrophages stimulated with Leishmania amazonensis at 50 uM measured after 48 hrs by qRT-PCR analysis; type: functional, tissue-based
Peritoneal macrophage [27] = assay: Upregulation of IL-6 mRNA expression in BALB/c mouse peritoneal macrophages stimulated with Leishmania amazonensis at 50 uM measured after 48 hrs by qRT-PCR analysis; type: functional, tissue-based
Peritoneal macrophage [28] = assay: Upregulation of IL-12 mRNA expression in BALB/c mouse peritoneal macrophages stimulated with Leishmania amazonensis at 50 uM measured after 48 hrs by qRT-PCR analysis; type: functional, tissue-based
Peritoneal macrophage [29] = assay: Upregulation of IL-10 mRNA expression in BALB/c mouse peritoneal macrophages stimulated with Leishmania amazonensis at 50 uM measured after 48 hrs by qRT-PCR analysis; type: functional, tissue-based
[30] = Inhibition of iNOS expression in BALB/c mouse peritoneal macrophages assessed as decrease in LPS induced nitrite levels at 50 uM pretreated with 1400W for 1 hr followed by LPS stimulation further treated with test compound and measured after 48 hrs by Griess reagent based assay (Rvb= 4.27 +/- 0.432 uM); type: functional, Peritoneal macrophage
[31] = Inhibition of iNOS expression in BALB/C mouse peritoneal macrophages stimulated with Leishmania amazonensis assessed as decrease in nitrite levels at 50 uM pretreated with 1400W for 1 hr followed by parasite stimulation and measured after 48 hrs by Griess reagent based assay (Rvb= 2.60 +/- -.236 uM); type: functional, Peritoneal macrophage
Leishmania amazonensis [32] = assay: (§3) Antileishmanial activity against Leishmania amazonensis (MHOM/BR/76/MA-76) intracellular amastigotes infected in BALB/c mouse peritoneal macrophages assessed as number of amastigotes per 100 cells at 15.52 uM pretreated with 1400W for 1 hr followed by test compound addition measured after 24 hrs by Giemsa's azur-eosin-methylene blue staining based light microscopy analysis; type: functional, Peritoneal macrophage
Leishmania amazonensis [33] = assay: as §3, with “percentage” for “number”, “infected” for “amastigotes per 100”; type: functional, Peritoneal macrophage
Leishmania amazonensis [34] = assay: as §3, with “cell” for “100 cells”; type: functional, Peritoneal macrophage
Leishmania amazonensis [35] = assay: as §3, with “uM” for “uM pretreated with 1400W for 1 hr followed by test compound addition”; type: functional, Peritoneal macrophage
Leishmania amazonensis [36] = assay: as §3, with “percentage” for “number”, “infected” for “amastigotes per 100”, “uM” for “uM pretreated with 1400W for 1 hr followed by test compound addition”; type: functional, Peritoneal macrophage
Leishmania amazonensis [37] = assay: as §3, with “cell” for “100 cells”, “uM” for “uM pretreated with 1400W for 1 hr followed by test compound addition”; type: functional, Peritoneal macrophage
Leishmania amazonensis [38] = assay: as §2, with “decrease in number of amastigotes per 100 cells” for “low amastigote mean”, “at” for “at 5 to”; type: functional, organism-based; settings: Peritoneal macrophage
Leishmania amazonensis [39] = assay: as §2, with “decrease in number of amastigotes per infected cells” for “low amastigote mean”, “up” for “5”; type: functional, organism-based; settings: Peritoneal macrophage
Leishmania amazonensis [40] = assay: Antileishmanial activity against Leishmania amazonensis (MHOM/BR/76/MA-76) intracellular amastigotes infected in BALB/c mouse peritoneal macrophages assessed as low amastigote mean at 40 uM incubated for 24 hrs by Giemsa's azur-eosin-methyle blue staining based light microscopy analysis; type: functional, organism-based; settings: Peritoneal macrophage

COC(=O)c1ccc(-n2cc(C(O)c3cccnc3-c3ccccc3)nn2)cc1 (configuration not stated)
CC50 at 24 h [1]: > 400 µM
IC50 (Leishmania amazonensis [2]): 95.9 µM
selectivity ratio [3]: > 4.17
Activity [4]: Non-Toxic

CCCCCCCCCCCCCCCCOP(=O)([O-])OCC[N+](C)(C)C [MILTEFOSINE]
CC50 at 24 h [5]: 191 µM
CC50 at 24 h [1]: 169 µM
IC50 (Leishmania amazonensis [2]): 8.02 µM
selectivity ratio [3]: 21.1
IC50 (Leishmania amazonensis [6]): 5.11 µM
selectivity ratio [7]: 33.2
Activity (Leishmania amazonensis [8]): Active
Activity (Leishmania amazonensis [9]): Active
Activity (Leishmania amazonensis [10]): Active
Activity (Leishmania amazonensis [11]): Active
Activity (Leishmania amazonensis [12]): Active

CC(=N)NCc1cccc(CN)c1.Cl.Cl
Activity [13]: 2.06 µM

OC(c1cn(-c2ccc(Br)cc2)nn1)c1ccccc1Br (configuration not stated)
CC50 at 24 h [1]: 313 µM
IC50 (Leishmania amazonensis [2]): > 200 µM
selectivity ratio [3]: < 1.56
Activity [4]: Non-Toxic

OC(c1cn(-c2ccc(Br)cc2)nn1)c1ccccc1F (configuration not stated)
CC50 at 24 h [1]: > 400 µM
IC50 (Leishmania amazonensis [2]): 110 µM
selectivity ratio [3]: > 3.62
Activity [4]: Non-Toxic

O=[N+]([O-])c1ccccc1C(O)c1cn(-c2ccc(Br)cc2)nn1 (configuration not stated)
CC50 at 24 h [1]: > 400 µM
IC50 (Leishmania amazonensis [2]): 190 µM
selectivity ratio [3]: > 2.1
Activity [4]: Non-Toxic

OC(c1ccc(Br)cc1)c1cn(-c2ccc(Br)cc2)nn1 (configuration not stated)
Activity (Leishmania amazonensis [14]): Active
Activity (Leishmania amazonensis [15]): Active
Ratio IC50 [16]: 3.7
CC50 at 24 h [1]: 84 µM
IC50 (Leishmania amazonensis [2]): 15.5 µM
selectivity ratio [3]: 5.41
IC50 (Leishmania amazonensis [6]): 4.1 µM
selectivity ratio [7]: 20.5
Activity [4]: Non-Toxic
Activity (Leishmania amazonensis [8]): Active
Activity (Leishmania amazonensis [9]): Active
Activity (Leishmania amazonensis [10]): Active
Activity (Leishmania amazonensis [11]): Active
Activity (Leishmania amazonensis [12]): Active
Activity (Leishmania amazonensis [17]): Active
Activity (Leishmania amazonensis [18]): Active
Activity (Peritoneal macrophage [19]): 4.63 µM
Activity (Peritoneal macrophage [20]): 4.34 µM
Activity (Peritoneal macrophage [21]): 65.79%
Activity (Peritoneal macrophage [22]): 9.37 µM
fold change (FC) [23]: 12.28
fold change (FC) [24]: 24.47
Activity (Peritoneal macrophage [25]): Active
Activity (Peritoneal macrophage [26]): Active
Activity (Peritoneal macrophage [27]): inactive
Activity (Peritoneal macrophage [28]): inactive
Activity (Peritoneal macrophage [29]): inactive
Activity [30]: 2.65 µM
Activity [31]: 3.06 µM
Activity (Leishmania amazonensis [32]): 288.25
Activity (Leishmania amazonensis [33]): 79.6
Activity (Leishmania amazonensis [34]): 3.68
Activity (Leishmania amazonensis [35]): 169.38
Activity (Leishmania amazonensis [36]): 55.6
Activity (Leishmania amazonensis [37]): 2.86

O=c1ccc2cc(-n3cc(C(O)c4ccccc4-c4ccccc4)nn3)ccc2o1 (configuration not stated)
CC50 at 24 h [1]: 141 µM
IC50 (Leishmania amazonensis [2]): > 200 µM
selectivity ratio [3]: < 0.7
Activity [4]: Non-Toxic

O=c1ccc2cc(-n3cc(C(O)c4ccccc4Br)nn3)ccc2o1 (configuration not stated)
CC50 at 24 h [1]: 348 µM
IC50 (Leishmania amazonensis [2]): 81.4 µM
selectivity ratio [3]: 4.27
Activity [4]: Non-Toxic

CC(=O)c1ccc(-n2cc(C(O)c3ccccc3-c3ccccc3)nn2)cc1 (configuration not stated)
CC50 at 24 h [1]: 234 µM
IC50 (Leishmania amazonensis [2]): 56.6 µM
selectivity ratio [3]: 4.12
Activity [4]: Non-Toxic

OC(c1ccccc1)c1cn(-c2ccc(Br)cc2)nn1 (configuration not stated)
CC50 at 24 h [1]: > 400 µM
IC50 (Leishmania amazonensis [2]): > 200 µM
selectivity ratio [3]: > 2
Activity [4]: Non-Toxic

COC(=O)c1ccc(-n2cc(C(O)c3ccccc3Br)nn2)cc1 (configuration not stated)
Activity (Leishmania amazonensis [14]): Active
CC50 at 24 h [1]: 297 µM
IC50 (Leishmania amazonensis [2]): 27.8 µM
selectivity ratio [3]: 10.7
IC50 (Leishmania amazonensis [6]): 37 µM
selectivity ratio [7]: 8.03
Activity [4]: Non-Toxic
Activity (Leishmania amazonensis [8]): Active
Activity (Leishmania amazonensis [9]): Active
Activity (Leishmania amazonensis [38]): Active
Activity (Leishmania amazonensis [39]): inactive
Activity (Leishmania amazonensis [40]): Active
Activity (Leishmania amazonensis [17]): Active
Activity (Leishmania amazonensis [18]): Active

OC(c1ccc(Br)cc1)c1cn(-c2ccc(F)cc2)nn1 (configuration not stated)
CC50 at 24 h [1]: 182 µM
IC50 (Leishmania amazonensis [2]): 45.6 µM
selectivity ratio [3]: 4
Activity [4]: Non-Toxic
